Measured values taken from patent publication US8148391B2 (Cephalon, Inc., priority 2006, dated 2012).
pIC50: −log10 of the molar value. Like-named read-outs stand apart in the source and are kept apart here.

Legend:
[1] = biological target: T1, c-Met (cytoplasmic domain) (Homo sapiens, UniProt P08581); assay: c-Met Kinase Assay (same methods as for ALK, with modifications); format: biochemical
T1 construct: 10 ng/mL c-Met (cytoplasmic domain, Invitrogen Corporation #PV3143); purchased Invitrogen Corporation PV3143
Summary of the method: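 This plate-based kinase format uses immobilized phospholipase C-γ as substrate, phosphorylated by c-Met cytoplasmic domain (10 ng/mL) at 37° C for 15 minutes.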

[2] = biological target: T2, baculovirus-expressed ALK (Homo sapiens, UniProt Q9UM73); assay: ALK Kinase Assay (ELISA-type, time-resolved fluorescence); format: biochemical
T2 construct: host or cells: baculovirus expression system
Summary of the method: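 Substrate coating: phospholipase C-γ, 10 μg/mL in TBS. Kinase step: 30 ng/ml ALK, 15 min, 37° C. Detection and analysis: Eu-N1 PT66 antibody, with IC50 fitted as a sigmoidal variable-slope dose-response curve.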

[3] = c-Met kinase inhibition, 1 μM ATP (Km level), read-out: cMet Activity
[4] = ALK kinase inhibition, 1 μM ATP (Km level), read-out: ALK Activity
[5] = ALK kinase inhibition, 1 μM ATP, read-out: ALK Activity
[6] = c-Met kinase inhibition, 1 μM ATP, read-out: cMet Activity
[7] = 1 μM ATP (Km level), read-out: cMet Activity (c-Met Kinase Inhibition, IC50)
[8] = 1 μM ATP (Km level), read-out: ALK Activity (ALK Kinase Inhibition, IC50)

T1 sequence (P08581 956-1390 limits assumed): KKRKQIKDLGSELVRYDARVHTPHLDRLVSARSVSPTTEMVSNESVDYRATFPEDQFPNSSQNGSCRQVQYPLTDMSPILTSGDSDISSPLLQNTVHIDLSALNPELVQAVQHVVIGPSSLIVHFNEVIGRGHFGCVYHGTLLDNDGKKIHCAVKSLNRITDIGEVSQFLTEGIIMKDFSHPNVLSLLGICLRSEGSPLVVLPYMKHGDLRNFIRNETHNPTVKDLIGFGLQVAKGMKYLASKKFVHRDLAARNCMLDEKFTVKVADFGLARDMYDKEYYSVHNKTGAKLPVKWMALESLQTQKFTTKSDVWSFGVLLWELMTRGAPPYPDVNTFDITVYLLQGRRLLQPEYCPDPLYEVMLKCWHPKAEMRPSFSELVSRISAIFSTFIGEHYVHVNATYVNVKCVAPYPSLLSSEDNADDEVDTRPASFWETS
T2 sequence (Q9UM73 19-1620): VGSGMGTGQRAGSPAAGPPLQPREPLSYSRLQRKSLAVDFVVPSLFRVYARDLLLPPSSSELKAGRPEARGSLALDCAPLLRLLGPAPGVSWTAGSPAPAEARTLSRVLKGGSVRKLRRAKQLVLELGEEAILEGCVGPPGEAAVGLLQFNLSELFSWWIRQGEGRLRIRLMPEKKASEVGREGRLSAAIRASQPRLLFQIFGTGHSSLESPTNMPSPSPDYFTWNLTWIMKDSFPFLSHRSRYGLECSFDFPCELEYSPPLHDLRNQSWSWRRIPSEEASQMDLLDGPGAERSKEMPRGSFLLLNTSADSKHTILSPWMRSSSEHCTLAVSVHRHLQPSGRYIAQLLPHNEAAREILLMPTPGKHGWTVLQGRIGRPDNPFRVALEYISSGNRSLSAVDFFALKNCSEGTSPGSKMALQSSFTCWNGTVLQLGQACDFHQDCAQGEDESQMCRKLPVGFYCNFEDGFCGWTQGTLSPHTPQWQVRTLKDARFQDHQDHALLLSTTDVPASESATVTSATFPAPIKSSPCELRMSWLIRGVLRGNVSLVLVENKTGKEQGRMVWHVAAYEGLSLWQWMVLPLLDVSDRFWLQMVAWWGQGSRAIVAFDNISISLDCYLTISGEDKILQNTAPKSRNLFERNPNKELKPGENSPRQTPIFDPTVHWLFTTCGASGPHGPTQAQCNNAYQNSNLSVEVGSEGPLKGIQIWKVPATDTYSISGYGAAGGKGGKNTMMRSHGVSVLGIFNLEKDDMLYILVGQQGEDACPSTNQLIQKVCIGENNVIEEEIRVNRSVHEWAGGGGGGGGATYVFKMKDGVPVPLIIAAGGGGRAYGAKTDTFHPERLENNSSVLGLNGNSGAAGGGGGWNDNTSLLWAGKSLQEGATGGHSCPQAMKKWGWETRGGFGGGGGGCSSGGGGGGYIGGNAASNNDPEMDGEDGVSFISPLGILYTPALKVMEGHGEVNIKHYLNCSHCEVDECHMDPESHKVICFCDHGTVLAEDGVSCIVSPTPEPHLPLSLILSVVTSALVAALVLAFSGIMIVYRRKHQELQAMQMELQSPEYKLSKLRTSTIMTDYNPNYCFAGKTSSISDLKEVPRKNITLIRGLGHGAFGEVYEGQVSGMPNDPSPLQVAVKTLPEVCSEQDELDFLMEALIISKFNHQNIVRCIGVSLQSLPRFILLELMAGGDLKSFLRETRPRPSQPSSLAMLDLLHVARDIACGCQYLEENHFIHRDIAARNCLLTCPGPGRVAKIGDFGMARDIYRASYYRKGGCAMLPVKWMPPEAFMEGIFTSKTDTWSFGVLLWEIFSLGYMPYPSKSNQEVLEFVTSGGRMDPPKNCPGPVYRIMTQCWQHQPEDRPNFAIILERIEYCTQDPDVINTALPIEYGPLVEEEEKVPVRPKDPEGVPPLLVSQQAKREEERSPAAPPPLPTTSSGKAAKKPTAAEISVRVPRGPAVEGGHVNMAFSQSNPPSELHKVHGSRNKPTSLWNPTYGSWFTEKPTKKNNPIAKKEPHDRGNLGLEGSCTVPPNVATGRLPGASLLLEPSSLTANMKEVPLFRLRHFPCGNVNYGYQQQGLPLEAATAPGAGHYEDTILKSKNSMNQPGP

Row | SMILES | pIC50 [1, 3] | pIC50 [2, 4] | pIC50 [2, 5] | pIC50 [1, 6] | other results
1 | CNC(=O)c1ccccc1Nc1nc(Nc2ccc3c(c2Cl)C2CCC(C3)N2CCOC)ncc1Cl (centres unmarked) [Example 87, 2-{5-Chloro-2-[3-chloro-12-(2-methoxy-ethyl)-12-aza-tricyclo[7.2.1.0*2,7*]dodeca-2(7),3,5-trien-4-ylamino]-pyrimidin-4-ylamino}-N-methyl-benzamide] | 6.00 to 7.00 | > 7.00 |  |  | 
2 | CNC(=O)c1sccc1Nc1nc(Nc2ccc3c(c2)N(C(C)=O)CCCO3)ncc1Cl [Example 1702, 3-[2-(9-Acetyl-6,7,8,9-tetrahydro-5-oxa-9-aza-benzocyclohepten-2-ylamino)-5-chloro-pyrimidin-4-ylamino]-thiophene-2-carboxylic acid methylamide] |  |  | 5.00 to 6.00 |  | pIC50 ([1]; cMet Activity, c-Met kinase inhibition, 1 μM ATP): > 7.00
3 | CNC(=O)c1cccc(F)c1Nc1nc(Nc2ccc3c(c2)C(=O)NCCO3)ncc1Cl [Example 1222, 2-[5-Chloro-2-(5-oxo-2,3,4,5-tetrahydro-1,4-benzoxazepin-7-ylamino)-pyrimidin-4-ylamino]-3-fluoro-N-methyl-benzamide] |  |  |  |  | pIC50 ([1]; 1 μM ATP (Km level), 10 ng/mL c-Met, read-out: cMet Activity (c-Met kinase inhibition, IC50 class)): 6.00 to 7.00; pIC50 ([2]; 1 μM ATP (Km level), 30 ng/ml ALK, 37° C., 15 minutes, read-out: ALK Activity (ALK kinase inhibition, IC50 class)): 6.00 to 7.00
4 | CCN1CCc2cc(Nc3ncc(Cl)c(N[C@@H]4CCCC[C@H]4NS(C)(=O)=O)n3)c(OC)cc2CC1=O [Example 251, N-{(1R,2R)-2-[5-Chloro-2-(3-ethyl-8-methoxy-2-oxo-2,3,4,5-tetrahydro-1H-benzo[d]azepin-7-ylamino)-pyrimidin-4-ylamino]-cyclohexyl}-methanesulfonamide] | < 5.00 | > 7.00 |  |  | 
5 | CCN1CCCOc2ccc(Nc3ncc(Cl)c(Nc4ccsc4C(=O)NC)n3)cc21 [Example 1698, 3-[5-Chloro-2-(9-ethyl-6,7,8,9-tetrahydro-5-oxa-9-aza-benzocyclohepten-2-ylamino)-pyrimidin-4-ylamino]-thiophene-2-carboxylic acid methyl amide] |  |  | 6.00 to 7.00 | 6.00 to 7.00 | 
6 | COc1cc2c(cc1Nc1ncc(Cl)c(Nc3ccc(N4CC5CC4CO5)cc3OC)n1)CCN(CC(=O)N(C)C)CC2 (centres unmarked) [Example 794, 2-(7-{5-Chloro-4-[2-methoxy-4-(2-oxa-5-aza-bicyclo[2.2.1]hept-5-yl)-phenylamino]-pyrimidin-2-ylamino}-8-methoxy-1,2,4,5-tetrahydro-benzo[d]azepin-3-yl)-N,N-dimethyl-acetamide] |  |  |  |  | pIC50 [1, 7]: < 5.00; pIC50 [2, 8]: > 7.00
7 | COc1cc2c(cc1Nc1ncc(Cl)c(Nc3ccc(N4CCN(C(C)C)CC4)c4c3C(=O)N(C)C4)n1)CCN(CC(=O)N(C)C)CC2 [Example 951, 2-(7-{5-Chloro-4-[7-(4-isopropyl-piperazin-1-yl)-2-methyl-3-oxo-2,3-dihydro-1H-isoindol-4-ylamino]-pyrimidin-2-ylamino}-8-methoxy-1,2,4,5-tetrahydro-3-benzazepin-3-yl)-N,N-dimethyl-acetamide] |  |  |  |  | pIC50 [1, 7]: < 5.00; pIC50 [2, 8]: > 7.00
8 | CCN1C(=O)CN(C(C)=O)Cc2ccc(Nc3ncc(Cl)c(Nc4c(F)cccc4C(=O)NC)n3)cc21 [Example 1851, 2-[2-(4-Acetyl-1-ethyl-2-oxo-2,3,4,5-tetrahydro-1H-benzo[e][1,4]diazepin-8-ylamino)-5-chloro-pyrimidin-4-ylamino]-3-fluoro-N-methyl-benzamide] |  |  | 5.00 to 6.00 | > 7.00 | 
9 | COc1cc(N2CCOCC2)ccc1Nc1nc(Nc2ccc3c(c2)N(CCN2CCCC2)CCCC3(C)C)ncc1Cl [Example 1610, 5-Chloro-N*2*-[5,5-dimethyl-1-(2-pyrrolidin-1-yl-ethyl)-2,3,4,5-tetrahydro-1H-benzo[b]azepin-8-yl]-N*4*-(2-methoxy-4-morpholin-4-yl-phenyl)-pyrimidine-2,4-diamine] |  |  | > 7.00 | 5.00 to 6.00 | 
10 | CNC(=O)[C@@H]1CCC[C@@H]1Nc1nc(Nc2ccc3c(c2)CCN(CCOC)CC3)ncc1Cl (relative stereo) [Example 372, cis-2-{5-Chloro-2-[3-(2-methoxy-ethyl)-2,3,4,5-tetrahydro-1H-benzo[d]azepin-7-ylamino]-pyrimidin-4-ylamino}-cyclopentanecarboxylic acid methylamide] | 6.00 to 7.00 | > 7.00 |  |  | 
